Experimental data taken from patent US20140371244A1, “METHOD FOR TREATING PROSTATE CANCER BY USE OF PHARMACEUTICAL COMPOSITION CONTAINING A3 ADENOSINE RECEPTOR AGONIST” (priority 2009, published 2014).

Legend:
TNF-α = TNF-α secretion (ELISA) and mRNA expression (RT-PCR) in LPS-stimulated RAW 264.7 cells; format: cell-based, mouse
Procedure: TNF-α is a cytokine whose expression increases in cells stimulated by LPS, and it influences the expression of IL-1β and the progression of inflammatory reactions. Thus, the effect of the inventive composition on the expression of TNF-α was examined. Specifically, RAW 264.7 cells were pretreated with each of 20, 10 and 5 μM of the inventive composition (thio-Cl-IB-MECA) and treated with LPS (1 μg/ml) to induce inflammatory reactions. Then, the cells were incubated for 6 hours, after which the supernatant was taken and the amount of TNF-α secreted into the supernatant was measured using an ELISA ([…]) kit.
In addition, in order to examine whether TNF-α is expressed at the gene level, the effect of the inventive composition on the expression of TNF-α mRNA was also tested using the RT-PCR method.

ICR white mice = assay: Animal toxicity test, single oral dose; format: in vivo; conditions: oral 1500 mg/kg, n=10
Procedure: In order to examine the toxicities of thio-Cl-IB-MECA and thio-IB-MECA, each of the compounds was administered orally to ICR white mice (n=10, 25 g) at a dose of 1500 mg/kg weight, and the behavioral change and state of the mice were observed.

PC-3 = assay: Morphological change of PC-3 cells; format: cell-based, human; conditions: 40, 20 and 10 μM, 48 hours
Procedure: Each of LNCaP and PC-3 prostate cancer cell lines was treated with 40, 20 and 10 μM of thio-Cl-IB-MECA and cultured for 48 hours, and then the morphological change of the cells was observed.
Specifically, each type of the prostate cancer cells was diluted with 10% FBS (Fetal Bovine Serum)-containing medium to a density of 1.0×10^6 cells per 100 mm culture dish and cultured under the conditions of 37° C. and 5% CO2, followed by washing twice with PBS (Phosphate Buffered Saline). Thio-Cl-IB-MECA was diluted in 10% FBS-containing medium at required concentration, and then 10 ml of the culture medium prepared in the 100 mm culture dish was added thereto and incubated for a given time. The morphology of the cells was observed as a function of treatment time and concentration (FIGS. 11a and 11b).

HCT 116 cells [1] = assay: RT-PCR of cell cycle regulation-related genes in HCT 116 cells; format: cell-based, human; conditions: 40 μM
Procedure: A test was carried out to examine whether cell cycle regulation-related genes involved in the G1 phase are expressed.
Specifically, HCT 116 cells were diluted with 10% FBS-containing medium to a density of 1×10^6 cells per 100 mm culture dish and cultured under the conditions of 37° C. and 5% CO2 for 24 hours, followed by washing twice with PBS. Thio-Cl-IB-MECA was diluted in 10% FBS-containing medium to a concentration of 40 μM, and then 10 ml of the culture medium prepared in the 100 mm culture dish was added thereto and cultured for a given time. The non-adherent cells and adherent cells in the cell medium were collected and washed twice with PBS. Then, the cells were lysed with TRI reagent (TRIzol), after which CHCl3 was added thereto and RNA was extracted from the cells and precipitated using isopropyl alcohol. The RNA precipitate was washed with 70% ethanol and dried in air, after which it was suspended in nuclease-free water. The suspension was heated at 55° C. for 10 minutes and then at 70° C. for 5 minutes, so that the RNA was present as a single chain. The total RNA was quantified with NanoDrop, after which it was diluted to a concentration of 1 μg/μl and made into cDNA using avian myeloblastosis virus (AMV) reverse transcriptase and oligo (dT)15 primers. […]

HCT 116 cells [2] = assay: Western blot of cell cycle regulation-related proteins and Wnt signaling in HCT 116 cells; format: cell-based, human; conditions: 40 μM
Procedure: Because it was confirmed that thio-Cl-IB-MECA arrests the G1 phase of human colorectal cancer HCT 116 cells, a test was carried out to examine whether cell cycle regulation-related proteins involved in the G1 phase are expressed and to examine the expression of Wnt-related proteins in order to examine whether the inhibitory effect of thio-Cl-IB-MECA on the proliferation of cancer cells is attributable to regulation of the signaling pathway.
Specifically, HCT 116 cells were diluted with 10% FBS-containing medium to a density of 1×10^6 cells per 100 mm culture dish and cultured under the conditions of 37° C. and 5% CO2 for 24 hours, followed by washing twice with PBS. Thio-Cl-IB-MECA was diluted in 10% FBS-containing medium to a concentration of 40 μM, and then 10 ml of the culture medium prepared in the 100 mm culture dish was added thereto and cultured for a given period. The non-adherent cells and adherent cells in the cell medium were collected and washed twice with PBS, after which the cells were suspended in boiling cell lysis buffer and heated at 100° C. for 5 minutes. The cells were cooled and then stored at […], and the stored cells were thawed at 37° C. immediately before use in protein quantification and electrophoresis. Protein quantification was performed using the BCA method, and […] of protein was electrophoresed on 8-12% SDS-polyacrylamide gel at 150 V for 110 minutes. The gel at the desired site was cut and transferred to a PVDF (polyvinylidene fluoride) for 1 hour, and after which it was washed twice with PBST and stirred in blocking buffer at room temperature for 1 hour. Then, the membrane was washed three times with PBST for 5 minutes each time, after which primary antibody was diluted at a ratio of 1:1,000-1:2,000 with 3% skimmed milk/PBST, and it was sealed together with the membrane and incubated with stirring at 4° C. for 12 hours or more. The membrane was washed 2-3 times with PBST for 5 minutes each time, after which HRP-conjugated secondary antibody was diluted at a ratio of 1:1,500-1:2,000 and incubated with the membrane at room temperature for 2-3 hours. The membrane was washed three times with PBST for 5 minutes each time and treated with a Western blot substrate (WESTSAVE Up™), and the produced luminescence was examined using LAS-3000.

CNC(=O)[C@H]1S[C@@H](n2cnc3c(NCc4cccc(I)c4)nc(Cl)nc32)[C@H](O)[C@@H]1O [thio-Cl-IB-MECA, 2-chloro-N^6-(3-iodobenzyl)-4′-thioadenosine-5′-N-methyluronamide]
amount of TNF-α secreted (TNF-α; ELISA, 5, 10, 20 μM, LPS 1 μg/ml, 6 hours): concentration-dependently inhibited
expression of TNF-α mRNA (TNF-α; RT-PCR): also inhibited
survival and side effects up to 7 days after administration (ICR white mice): survived healthfully without particular side effects
number of the cells, PC-3 (PC-3): decreased in a concentration-dependent manner
gene expression of cyclin D1 and c-Myc (HCT 116 cells [1]): inhibited the expression
gene expression of p21 and p53 (HCT 116 cells [1]): increased the expression
Wnt signaling pathway (HCT 116 cells [2]): inhibited the Wnt signaling pathway
expression of Rb and p-Rb (HCT 116 cells [2]): also inhibited the expression
expression of cyclin D1, cyclin A and cyclin E (HCT 116 cells [2]): inhibited the expression
expression of p53 (HCT 116 cells [2]): increased the expression
